Reference: publication PMC7822874, “Chemoprotective antimalarials identified through quantitative high-throughput screening of Plasmodium blood and liver stage parasites” (Scientific Reports, 2021)

Tested on: Plasmodium falciparum Dd2 asexual blood stage parasites
Assay: microbe, parasite or virus in culture
Parameters: species or system Plasmodium falciparum Dd2 in human erythrocytes; single determination (one 11-point concentration-response curve)
Conditions: Plasmodium falciparum, DD2, Erythrocyte, 72 h; read-out: AC50

SMILES	AC50
COc1ccc(OC)c(CN2CC(Oc3ccccc3C(=O)NCc3ccccc3)C2)c1 [NCGC00458087-01]	13.3 µM
O=C(NCc1ccccc1)c1ccccc1OC1CN(Cc2ccc(O)c(F)c2)C1 [NCGC00458090-01]	15 µM
Cc1c(CN2CC(Oc3ccccc3C(=O)NCc3ccccc3)C2)cnn1C [NCGC00458092-01]	4.22 µM
c1ccc(-c2nc(-c3ccncc3)no2)c(OC2CCN(C3CCCC3)C2)c1 (stereo not shown) [NCGC00458106-01]	15 µM
O=C(c1ccccc1)N1CCC(Cc2nnc(-c3ccncc3)[nH]2)CC1 [NCGC00458326-01]	15 µM
Cc1ccc(OCc2nc(C3CCN(C(=O)c4c5c(nc6ccccc46)CCCC5)CC3)no2)cc1 [NCGC00459905-01]	9.44 µM
COc1cccc(C(=O)N2CCC(N3C[C@H](O)C[C@H]3C(=O)N3CCc4ccccc4C3)CC2)c1 [NCGC00460061-01]	8.41 µM
COc1cccc(C(=O)N2CCC(N3C[C@H](O)C[C@H]3C(=O)N3CC=C(c4ccccc4)CC3)CC2)c1 [NCGC00460071-01]	9.44 µM
COc1ccc(CN2CC3(CCN(C(=O)Nc4ccc(OC)c(F)c4)CC3)C2=O)cc1 [NCGC00460264-01]	10.6 µM
O=C(c1n[nH]c2ccccc12)N1CCCC1c1nc(CCOCC2CCOCC2)no1 (stereo not shown) [NCGC00460318-01]	9.44 µM
O=[S+]([O-])(c1cccnc1)N1CCC2(CC1)NCCc1c2[nH]c2ccccc12 [NCGC00460719-01]	16.8 µM
Cc1ccc(NC(=O)N2CCC(N3C(=O)C4(CCCCC4)C3c3ccncc3)CC2)cc1C (stereo not shown) [NCGC00461123-01]	7.5 µM
COCC1CN(Cc2cccc(C(F)(F)F)c2)CC12CCNCC2 (stereo not shown) [NCGC00461834-01]	7.5 µM
COCC1CN(Cc2cc(F)cc(Br)c2)CC12CCNCC2 (stereo not shown) [NCGC00461842-01]	9.44 µM
COCC1CN(Cc2cccc(OC(F)(F)F)c2)CC12CCNCC2 (stereo not shown) [NCGC00461844-01]	15 µM
COCC1CN(C)CC12CCN([S+](=O)([O-])c1ccc(F)c(Cl)c1)CC2 (stereo not shown) [NCGC00461939-01]	13.3 µM
CN(C)C[C@@H]1CN(C)C[C@H]1N[S+](=O)([O-])c1ccc(Br)cc1 [NCGC00462726-01]	13.3 µM
Cc1ccc([S+](=O)([O-])N[C@@H]2CN(C)C[C@H]2CN(C)C)cc1F [NCGC00462728-01]	15 µM
COC1C(=O)N(c2cccc(F)c2)C12CCNCC2 (stereo not shown) [NCGC00463379-01]	10.6 µM
Fc1cccc(CN2CCC(N3CC(OCC4CC4)C34CCCCC4)CC2)c1 (stereo not shown) [NCGC00463410-01]	4.22 µM

SMILES	AC50
Cn1cccc1CN1CCC(N2CC(OCC3CC3)C23CCCCC3)CC1 (stereo not shown) [NCGC00463411-01]	7.5 µM
COc1cccc(CN2CCC(N3CC(OCC4CC4)C34CCCCC4)CC2)n1 (stereo not shown) [NCGC00463412-01]	4.22 µM
CCn1cc(CN2CCC(N3CC(OCC4CC4)C34CCCCC4)CC2)cn1 (stereo not shown) [NCGC00463414-01]	8.41 µM
CC(C)[S+](=O)([O-])N1CCC(N2CC(OCC3CC3)C23CCCCC3)CC1 (stereo not shown) [NCGC00463417-01]	15 µM
CCCn1c(C)cnc1CC1CCN([S+](=O)([O-])c2ccc3c(c2)CCC3)C1 (stereo not shown) [NCGC00464176-01]	9.44 µM
Cc1cnc(C2CCC2)n1C1CCCN(C(=O)CCCc2ccccc2)C1 (stereo not shown) [NCGC00464236-01]	15 µM
O=C(NCCc1c[nH]c2ccccc12)[C@@H]1C[C@H]2C(=O)NCCCCCCN(C(=O)c3ccco3)[C@H]2C1 [NCGC00465014-01]	10.6 µM
COc1ccc2c(c1)c(CN1CCCCCCN(C)C(=O)[C@@H]3CCC[C@@H]31)cn2C [NCGC00465190-01]	15 µM
COc1ccc(CN2CCCCCNC(=O)CC2c2ccccc2)cc1Cn1ccnc1 (stereo not shown) [NCGC00465444-01]	9.44 µM
O=C1CC(c2ccccc2)N(C(=O)CNC(=O)c2ccc3[nH]ccc3c2)CCCCCN1 (stereo not shown) [NCGC00465493-01]	15 µM
COC1CN(c2ccc(C)cc2)C12CCN(C(=O)CCc1nc3ccccc3s1)CC2 (stereo not shown) [NCGC00465628-01]	10.6 µM
N#Cc1cccc(C(=O)N2CCCN(Cc3ccncc3)C(c3ccccc3)CC(=O)NCC2)c1 (stereo not shown) [NCGC00467150-01]	7.5 µM
Cc1ccc(CN2CCCN(Cc3ccncc3)C(c3ccccc3)CC(=O)NCC2)o1 (stereo not shown) [NCGC00467180-01]	7.5 µM
Cc1ccc(CN2CCCN(Cc3ccncc3)C(c3ccccc3)CC(=O)NCC2)s1 (stereo not shown) [NCGC00467183-01]	2.66 µM
Cc1cccc(CN2CCCN(Cc3ccncc3)C(c3ccccc3)CC(=O)NCC2)c1 (stereo not shown) [NCGC00467184-01]	4.22 µM
COc1cccc(CN2CCCN(Cc3ccncc3)C(c3ccccc3)CC(=O)NCC2)c1 (stereo not shown) [NCGC00467185-01]	7.5 µM
Cc1ncsc1CN1CCCN(Cc2ccncc2)C(c2ccccc2)CC(=O)NCC1 (stereo not shown) [NCGC00467186-01]	8.41 µM
O=C1CC(c2ccccc2)N(Cc2ccncc2)CCCN(C(=O)Nc2ccccc2F)CCN1 (stereo not shown) [NCGC00467191-01]	1.68 µM
O=C1CC(c2ccccc2)N(Cc2ccncc2)CCCN([S+](=O)([O-])c2cccs2)CCN1 (stereo not shown) [NCGC00467201-01]	6.68 µM
O=C1CC(c2ccccc2)N(Cc2ccncc2)CCCN([S+](=O)([O-])c2cccc(F)c2)CCN1 (stereo not shown) [NCGC00467202-01]	4.73 µM

SMILES	AC50
Cc1noc(C)c1[S+](=O)([O-])N1CCCN(Cc2ccncc2)C(c2ccccc2)CC(=O)NCC1 (stereo not shown) [NCGC00467205-01]	7.5 µM
Cc1ccc(CN2CC[C@@H]3C(=O)NCCCCCCN(Cc4ccncc4)[C@@H]3C2)o1 [NCGC00467213-01]	2.11 µM
N#Cc1ccc(CN2CC[C@@H]3C(=O)NCCCCCCN(Cc4ccncc4)[C@@H]3C2)cc1 [NCGC00467216-01]	10.6 µM
O=C1CC(c2ccccc2)N(C(=O)CNC(=O)c2n[nH]c3c2CCc2ccccc2-3)CCCCCCN1 (stereo not shown) [NCGC00467449-01]	2.99 µM
Cn1cccc1CN1C[C@@H](COc2ccncc2)[C@H](c2ccccn2)C1 [NCGC00468708-01]	13.3 µM
CCN(CC)c1cc(CCC(=O)NCCN(C)C2CCCCC2)ccn1 [NCGC00469386-01]	13.3 µM
Cc1cnc(CC2CCCN([S+](=O)([O-])c3ccccc3)C2)n1CC1CC1 (stereo not shown) [NCGC00469674-01]	6.68 µM
CCCn1c(C)cnc1CC1CCCN([S+](=O)([O-])c2cc(OC)ccc2OC)C1 (stereo not shown) [NCGC00469684-01]	10.6 µM
Cc1ccc(CN2CCCC(Cc3ncc(C)n3Cc3ccccc3)C2)o1 (stereo not shown) [NCGC00469705-01]	9.44 µM
Cc1cc(C(F)(F)F)nn1CC(=O)NCCc1ncc(C)n1CC1CC1 [NCGC00469801-01]	10.6 µM
O=C(NCc1ccc(N2CCCC2)cc1)C1CCCN(c2cnn(Cc3ccccc3)c(=O)c2)C1 (stereo not shown) [NCGC00470327-01]	10.6 µM
Fc1cccc(CC2CCOC3(CCNCC3)C2)c1 (stereo not shown) [NCGC00470522-01]	13.3 µM
Cc1ccc(NC(=O)Cn2c(-c3ccccc3)nc(C)c(CCO)c2=O)cc1Cl [NCGC00470911-01]	10.6 µM
Cc1nc(-c2ccccc2)n(CC(=O)Nc2ccc(Cl)cc2)c(=O)c1CCO [NCGC00470932-01]	16.8 µM
Cc1nc(-c2ccc(F)cc2)n(CC(=O)Nc2cccc(Cl)c2)c(=O)c1CCO [NCGC00470975-01]	15 µM
CSc1cccc(NC(=O)Cn2c(-c3ccc(F)cc3)nc(C)c(CCO)c2=O)c1 [NCGC00470986-01]	13.3 µM
Cc1nc(-c2cccc(Cl)c2)n(CC(=O)Nc2ccc(C(F)(F)F)cc2)c(=O)c1CCO [NCGC00471081-01]	13.3 µM
O=C(Cc1ccccc1F)N1CCOc2ccc(CN3CCc4ccccc4C3)cc2C1 [NCGC00471206-01]	13.3 µM
